Reference: patent publication US11753374B2, “Compounds for the treatment of acute and chronic kidney disease” (Southern Research Institute, priority 2020, dated 2023)

System: heme oxygenase-1 (HO-1)
Assay: High throughput screen: HO-1 promoter/enhancer luciferase reporter (pHOGL3/4.5+220) in stable HEK293 cells
Assay type: cell-based
Details: Homo sapiens; for EC50: Table 1, evaluation of biaryl aminomaleimides, HO-1 induction; for Emax: Table 1, unit inferred, Emax as % of 5 μM hemin
Description: The generation of the pHOGL3/4.5+220 construct is described in Deshane, et al. (2010) “SpI regulates chromatin looping between an intronic enhancer and distal promoter of the human heme oxygenase-1 gene in renal cells” J Biol Chem 285(22): 16476-86. See also FIG. 1.
Briefly, BamHI sites were added to the 4.5-kb PCR product generated by long-range PCR from a bacterial artificial chromosome clone containing portions of chromosome 22 (accession no. Z82244), including the HO-1 gene. This fragment was cloned into the BglII restriction site of the multiple cloning region to make the parental clone (pHOGL3/4.5). The 220-bp intronic enhancer was amplified with SalI sites on either end and cloned into the SalI site of the vector to generate pHOGL3/4.5+220.
In order to generate cells that stably express luciferase expression vectors that lack a mammalian antibiotic selection cassette, HEK293 cells were co-transfected with either pHOGL3/4.5+220 (Deshane et al, 2010) or the Triple Mutant construct (Liby, Hock et al, 2005; Hock et al, 2007) and pcDNA3.1 Zeocin using Lipofectamine 2000. Cells were cultured in Zeocin (400 ug/ml; Invitrogen) for selection. Individual clones were sorted by flow cytometry and plated into a 96-well plate at a density of one cell per well. Clones were maintained and expanded in complete media (DMEM/10% FBS/1× antibiotic-antimycotic) supplemented with 100 ug/ml Zeocin, and incubated at 37° C. in 5% carbon dioxide. Incorporation of the Luciferase expression vectors was validated by assaying for luciferase.
A library of over 150,000 compounds, as well as a library of over 4,000 FDA approved compounds, were used in the HTS assay. […] This led to the identification of approximately 800 compounds that induce HO-1 and have desirable chemical structures. […] The In-Cell Western assay was optimized to screen for endogenous HO-1 in a high throughput platform, and results were validated by Western blot, real-time PCR, and enzyme activity assays. Additional RNA sequencing studies highlighted a role for the transcription factor Nrf2 and other targets in HO-1 induction by several small molecules.

EC50 [µM] | SMILES | Emax [%]
31.3 | O=C1C=C(Nc2cc(Cl)c(O)c(Cl)c2)C(=O)N1c1ccccc1 [Compound 5] | 72.8
1.69 | O=C1C=C(Nc2ccc(O)c(Cl)c2F)C(=O)N1c1ccccc1 [Compound 9] | 33.7
> 50 | O=C1C=C(Nc2cc(F)c(F)c(F)c2)C(=O)N1c1ccccc1 [Compound 21] | 
2.91 | COc1ccc(N2C(=O)C=C(Nc3cc(F)c(O)c(F)c3)C2=O)cc1 [Compound 30] | 111
